Reference: patent publication US20230002374A1, “GPR52 MODULATOR COMPOUNDS” (Heptares Therapeutics Limited, priority 2019, published 2023)
Read-outs that look alike come from different tables or passages of the source.

Molecular target: human GPR52 (Homo sapiens, UniProt Q9Y2T5)
Test: GPR52 Agonist Functional cAMP Assay;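 note: HEKf cells transduced with GPR52 BacMam for 24 h, 2000 per well, exposed to compounds 30 min at 37° C with 0.5 mM IBMX, cAMP read by HTRF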
Conditions: for EC50: pEC50 average, HEKf cells infected with human GPR52 BacMam virus, cAMP HTRF, 30 min at 37° C.
[1] = maximal response normalised to DMSO (0%) and maximal compound 7m (J. Med. Chem., 2014, 57, 5226) response (100%)

human GPR52, sequence (Q9Y2T5 whole entry): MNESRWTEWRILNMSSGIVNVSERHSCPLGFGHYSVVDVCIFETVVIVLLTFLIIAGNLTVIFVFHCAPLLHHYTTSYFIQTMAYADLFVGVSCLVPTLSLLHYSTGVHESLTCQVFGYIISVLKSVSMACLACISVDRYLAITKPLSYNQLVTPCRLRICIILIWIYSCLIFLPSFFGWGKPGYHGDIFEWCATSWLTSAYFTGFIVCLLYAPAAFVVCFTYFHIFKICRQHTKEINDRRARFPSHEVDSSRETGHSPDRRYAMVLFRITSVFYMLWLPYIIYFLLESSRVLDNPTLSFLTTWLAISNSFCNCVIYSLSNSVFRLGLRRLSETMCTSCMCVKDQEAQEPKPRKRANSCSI
Experimental: Following BacMam infection, cells were pelleted by centrifugation (335 g, 5 min), resuspended in cell freezing medium (Sigma) and frozen at −150° C. until required. On experiment day, 25 nL GPR52 compound dilutions, prepared in DMSO, were stamped onto proxiplates (PerkinElmer) by a LabCyte ECHO acoustic dispenser. Frozen cells were thawed and resuspended in assay stimulation buffer (Cisbio) containing 0.5 mM 3-iso-butyl-1-methylxanthine (IBMX, Sigma) to achieve a density of 2000 cells per well. 10 μl cells were added to assay plates using a Multidrop Combi Reagent Dispenser (ThermoFisher) before centrifugation (335 g, 1 min). Cells were incubated with compounds at 37° C. for 30 min prior to addition of cAMP detection reagents (HiRange cAMP kit, Cisbio) which were prepared according to the manufacturer's instructions. Plates were shaken for 1 h at room temperature before reading on a PHERAstar FS plate reader (BMG Labtech) using standard HTRF settings.

Row | SMILES | Emax [1] | EC50 | Emax
1 | O=C1NCCc2c1cnn2-c1ccnc(Cc2cnc3ccccc3c2)c1 [Example 67, 1-(2-(quinolin-3-ylmethyl)pyridin-4-yl)-1,5,6,7-tetrahydro-4H-pyrazolo[4,3-c]pyridin-4-one] | 53% | 1580 nM | 
2 | O=C1NCCc2c1cnn2-c1ccnc(Cc2cc3ccccc3s2)c1 [Example 69, 1-(2-(benzo[b]thiophen-2-ylmethyl)pyridin-4-yl)-1,5,6,7-tetrahydro-4H-pyrazolo[4,3-c]pyridin-4-one] | 60% | 126 nM | 
3 | O=C1NCCc2c1cnn2-c1ccnc(Cc2cc(F)c(C(F)(F)F)c(F)c2)c1 [Example 70, 1-(2-(3,5-difluoro-4-(trifluoromethyl)benzyl)pyridin-4-yl)-1,5,6,7-tetrahydro-4H-pyrazolo[4,3-c]pyridin-4-one] | 74% | 316 nM | 
4 | CC(C)c1cc(F)cc(Cc2cc(-n3ncc4c3CCNC4=O)ccn2)c1 [Example 71, 1-(2-(3-fluoro-5-isopropylbenzyl)pyridin-4-yl)-1,5,6,7-tetrahydro-4H-pyrazolo[4,3-c]pyridin-4-one] | 91% | 20 nM | 
5 | COc1ncc(Cc2cc(-n3ncc4c3CCNC4=O)ccn2)cc1F [Example 72, 1-(2-((5-fluoro-6-methoxypyridin-3-yl)methyl)pyridin-4-yl)-1,5,6,7-tetrahydro-4H-pyrazolo[4,3-c]pyridin-4-one] | 83% | 1260 nM | 
6 | O=C1NCCc2c1cnn2-c1ccnc(Cc2cc(Cl)c(F)c(C(F)(F)F)c2)c1 [Example 73, 1-(2-(3-chloro-4-fluoro-5-(trifluoromethyl)benzyl)pyridin-4-yl)-1,5,6,7-tetrahydro-4H-pyrazolo[4,3-c]pyridin-4-one] | 88% | 50.1 nM | 
7 | O=C1NCCc2c1cnn2-c1ccnc(Cc2cc(F)cc(C3(C(F)(F)F)CC3)c2)c1 [Example 74, 1-(2-(3-fluoro-5-(1-(trifluoromethyl)cyclopropyl)benzyl)pyridin-4-yl)-1,5,6,7-tetrahydro-4H-pyrazolo[4,3-c]pyridin-4-one] | 53% | 501 nM | 
8 | Cc1cc(Cc2cc(-n3nc(C)c4c3CCNC4=O)ccn2)cnc1F [Example 76, 1-(2-((6-fluoro-5-methylpyridin-3-yl)methyl)pyridin-4-yl)-3-methyl-1,5,6,7-tetrahydro-4H-pyrazolo[4,3-c]pyridin-4-one] | 94% | 79.4 nM | 
9 | Cc1nn(-c2ccnc(Cc3cc(F)c(F)c(F)c3)c2)c2c1C(=O)NCC2 [Example 77, 3-methyl-1-(2-(3,4,5-trifluorobenzyl)pyridin-4-yl)-1,5,6,7-tetrahydro-4H-pyrazolo[4,3-c]pyridin-4-one] | 95% | 15.8 nM | 
10 | Cc1nn(-c2ccnc(Cc3cccc(C(F)(F)F)c3)c2)c2c1C(=O)NCC2 [Example 78, 3-methyl-1-(2-(3-(trifluoromethyl)benzyl)pyridin-4-yl)-1,5,6,7-tetrahydro-4H-pyrazolo[4,3-c]pyridin-4-one] | 94% | 20 nM | 
11 | Cc1nn(-c2ccnc(Cc3cc(F)cc(Cl)c3)c2)c2c1C(=O)NCC2 [Example 79, 1-(2-(3-chloro-5-fluorobenzyl)pyridin-4-yl)-3-methyl-1,5,6,7-tetrahydro-4H-pyrazolo[4,3-c]pyridin-4-one] | 99% | 12.6 nM | 
12 | Cc1nn(-c2ccnc(Cc3ccc(F)c(Cl)c3)c2)c2c1C(=O)NCC2 [Example 80, 1-(2-(3-chloro-4-fluorobenzyl)pyridin-4-yl)-3-methyl-1,5,6,7-tetrahydro-4H-pyrazolo[4,3-c]pyridin-4-one] | 97% | 10 nM | 
13 | Cc1nn(-c2ccnc(Cc3ccc(OC(F)F)c(F)c3)c2)c2c1C(=O)NCC2 [Example 81, 1-(2-(4-(difluoromethoxy)-3-fluorobenzyl)pyridin-4-yl)-3-methyl-1,5,6,7-tetrahydro-4H-pyrazolo[4,3-c]pyridin-4-one] | 70% | 10 nM | 
14 | Cc1cc(Cc2ccnc(-n3nc(C)c4c3CCNC4=O)c2)cnc1F [Example 83, 1-(4-((6-fluoro-5-methylpyridin-3-yl)methyl)pyridin-2-yl)-3-methyl-1,5,6,7-tetrahydro-4H-pyrazolo[4,3-c]pyridin-4-one] | 93% | 25.1 nM | 
15 | Cc1nn(-c2ccnc(Cc3cc(F)c(F)c(Cl)c3)c2)c2c1C(=O)NCC2 [Example 84, 1-(2-(3-chloro-4,5-difluorobenzyl)pyridin-4-yl)-3-methyl-1,5,6,7-tetrahydro-4H-pyrazolo[4,3-c]pyridin-4-one] |  | 2.51 nM | 95%
16 | Cc1nn(-c2ccnc(Cc3cc(F)cc(C#N)c3)c2)c2c1C(=O)NCC2 [Example 85, 3-fluoro-5-((4-(3-methyl-4-oxo-4,5,6,7-tetrahydro-1H-pyrazolo[4,3-c]pyridin-1-yl)pyridin-2-yl)methyl)benzonitrile] | 96% | 63.1 nM | 

Second part, led by results:

Row | Emax [1] | EC50 | SMILES | Emax
17 | 102% | 3.16 nM | Cc1nn(-c2ccnc(Cc3cc(F)c(F)c(C(F)(F)F)c3)c2)c2c1C(=O)NCC2 [Example 86, 1-(2-(3,4-difluoro-5-(trifluoromethyl)benzyl)pyridin-4-yl)-3-methyl-1,5,6,7-tetrahydro-4H-pyrazolo[4,3-c]pyridin-4-one] | 
18 | 95% | 6.31 nM | Cc1nn(-c2ccnc(Cc3cc(F)c(Cl)c(C(F)(F)F)c3)c2)c2c1C(=O)NCC2 [Example 87, 1-(2-(4-chloro-3-fluoro-5-(trifluoromethyl)benzyl)pyridin-4-yl)-3-methyl-1,5,6,7-tetrahydro-4H-pyrazolo[4,3-c]pyridin-4-one] | 
19 | 100% | 5.01 nM | Cc1nn(-c2ccnc(Cc3cc(Cl)c(F)c(C(F)(F)F)c3)c2)c2c1C(=O)NCC2 [Example 88, 1-(2-(3-chloro-4-fluoro-5-(trifluoromethyl)benzyl)pyridin-4-yl)-3-methyl-1,5,6,7-tetrahydro-4H-pyrazolo[4,3-c]pyridin-4-one] | 
20 | 87% | 20 nM | Cc1nn(-c2ccnc(Cc3cc(F)c(Cl)c(F)c3)c2)c2c1C(=O)NCC2 [Example 90, 1-(2-(4-chloro-3,5-difluorobenzyl)pyridin-4-yl)-3-methyl-1,5,6,7-tetrahydro-4H-pyrazolo[4,3-c]pyridin-4-one] | 
21 | 74% | 631 nM | COc1ccc(Cc2cc(-n3nc(C)c4c3CCNC4=O)ccn2)cn1 [Example 92, 1-(2-((6-methoxypyridin-3-yl)methyl)pyridin-4-yl)-3-methyl-1,5,6,7-tetrahydro-4H-pyrazolo[4,3-c]pyridin-4-one] | 
22 | 83% | 100 nM | COc1ncc(Cc2cc(-n3nc(C)c4c3CCNC4=O)ccn2)cc1F [Example 93, 1-(2-((5-fluoro-6-methoxypyridin-3-yl)methyl)pyridin-4-yl)-3-methyl-1,5,6,7-tetrahydro-4H-pyrazolo[4,3-c]pyridin-4-one] | 
23 | 78% | 398 nM | Cc1nn(-c2ccnc(Cc3ccc(OC(F)F)nc3)c2)c2c1C(=O)NCC2 [Example 94, 1-(2-((6-(difluoromethoxy)pyridin-3-yl)methyl)pyridin-4-yl)-3-methyl-1,5,6,7-tetrahydro-4H-pyrazolo[4,3-c]pyridin-4-one] | 
